These results are taken from US20170283458A1, “COLLAGEN-BINDING SYNTHETIC PEPTIDOGLYCANS FOR WOUND HEALING” (Symic Biomedical, Inc., priority 2009, published 2017).

Ends that are not written are not given here.

The test system of one data set is Human dermal fibroblasts. As to the kind of experiment: TGF-β1 production by human dermal fibroblasts (ELISA). To be noted: 1.4 μM treatment, 48 hours. The class given is cell-based. How it is done:
Human dermal fibroblasts (Cascade Biologics) were seeded onto 96-well tissue culture polystyrene plates at a seeding density of 1.83×10^3 cells/well. Cells adhered overnight and cell medium was aspirated. 100 μL/well of cell medium containing a final concentration of 1.4 μM treatment delivered from a concentrated solution of treatment in 1×PBS was added to the cells. After 48 hours, cell medium was removed and frozen at −80 C until further testing. TGF-β1 was measured by ELISA using a kit and protocol from R&D Systems.
On the technique in general: An ELISA detects its analyte on a solid surface through an enzyme-linked reagent.

In the next data set the test system is HCA SMCs. As to the kind of experiment: Measurement of elastin (Fastin assay) in cell-seeded collagen gels. The class given is cell-based, human. The settings on record: gels cultured for 10 days. The procedure:
Collagen gels seeded with HCA SMCs were prepared as described in EXAMPLE 30. Differentiation medium was changed every three days and gels were cultured for 10 days. Collagen gels containing no cells were used as a control. Gels were rinsed in 1×PBS overnight to remove serum protein, and gels were tested for elastin content using the Fastin elastin assay per manufacturers protocol (Biocolor, County […].). Briefly, gels were solubilized in 0.25 M oxalic acid by incubating at 100° C. for 1 hr. Elastin was precipitated and samples were then centrifuged at 11,000×g for 10 min. The solubilized collagen supernatant was removed and the elastin pellet was stained by Fastin Dye Reagent for 90 min at room temperature. Samples were centrifuged at 11,000×g for 10 min and unbound dye in the supernatant was removed. Dye from the elastin pellets was released by the Fastin Dye Dissociation Reagent, and 100 μL samples were transferred to a 96-well plate (Costar). Absorbance was measured at 513 nm, and elastin content was calculated from an α-elastin standard curve.

Another data set addresses T1, collagen gels (Bos taurus, UniProt P02453+P02465).
T1 construct: purchased Inamed, Freemont, Calif; Nutragen
Put plainly: Cryo-SEM measurement of fibril density. Format: biochemical. The settings on record: 10:1 molar ratio, cryo-SEM 10,000×. How it is done:
Collagen gels were formed in the presence of each additive at a 10:1 molar ratio, as described in EXAMPLE 16, directly on the SEM stage, processed, and imaged as described. Images at 10,000× were analyzed for fibril density calculations. Images were converted to 8-bit black and white, and threshold values for each image were determined using ImageJ software (NIH). The threshold was defined as the value where all visible fibrils are white, and all void space is black. The ratio of white to black area was calculated using MatLab software. All measurements were taken in triplicate and thresholds were determined by an observer blinded to the treatment.

For data set [1], the system named is Long-Evans rats. Put plainly: Rat incisional model, tensile testing of scar (scar strength). The class given is in vivo. The procedure:
(§1) Using sterile techniques, longitudinal wounds were incised on shaved dorsal skin of the rats. A 4 cm incision was cut through the panniculus down to the skeletal musculature, and a 250 μL single dose of either 10 mg/mL hyaluronic acid (HA) or HA+DS-SILY was applied to the open wound by a syringe. DS-SILY was tested at 0.5, 1, and 2.5 mg/mL mixed with HA. The incision was then sutured closed and animals were returned to individual cages and monitored for complications. Negative control rats received no treatment and were treated identically. A pilot study was performed (n=3) at time points 3, 7, 10, 14, and 21 days, followed by a higher powered study (n=9) for 21 and 28 day time points.
At a predetermined time after surgery (3-28 days) the animals were euthanized. Photographs of the incision were obtained, and the dermal wound including a 1 inch area around the wound edge was excised and cut into 4mm wide strips using a custom cutting device with fixed blades. Relevant tissues were harvested for tensile strength testing and histologic study.
Based on these findings, a full powered (n=9 rats/treatment) was performed using the later time points 21-day and 28-day, and comparing the same low dose, but modifying the high dose to 0.25 mg DS-SILY. DS-SILY was delivered with HA in each study and the negative control received no treatment.
Following necropsy, 4 mm skin strips (n=4 per animal) were placed in 1×PBS and kept at 4° C. for up to 6 hours. The wound breaking strength was measured at time points from 3 to 21 days. Skin samples were loaded onto a mechanical testing system (Test Resources, mode:100P/Q) such that the incision was orthogonal to the grips. Samples were loaded under tension with a rate of 5 mm/min to failure. […] No differences were observed between the low and high peptidoglycan concentrations.

The subject of data set [2] is Long-Evans rats. As to the kind of experiment: Rat incisional model, H&E histological scoring for inflammation. The class given is in vivo. The settings on record: low and high doses, all time points. The procedure:
as §1, with “points. […]” for “points.”
(§2) H&E stained samples were examined for inflammation by a board certified pathologies blinded to the treatments following a scale adapted from Simhon et al. Trichrome stained samples were evaluated for scar tissue formation by an observer blinded to the treatments using a method established by Beausang et al. in which collagen orientation, density, and maturation are observed and compared to collagen of healthy tissue. A total of 12 tissue samples were analyzed for each study at each time point. Statistics were analyzed by ANOVA using Design Expert software (StatEase, Minneapolis, Minn.). […]

Data set [3] deals with Long-Evans rats. As to the kind of experiment: Rat incisional model, trichrome histological scoring of scar tissue (Beausang). The class given is in vivo. The settings on record: 21-days post-injury; 0.125 mg and 0.625 mg; vs untreated wounds. How it is done:
as §1, with “points. […]” for “points.”
as §2

T1 sequence (P02453 162-1217 limits assumed): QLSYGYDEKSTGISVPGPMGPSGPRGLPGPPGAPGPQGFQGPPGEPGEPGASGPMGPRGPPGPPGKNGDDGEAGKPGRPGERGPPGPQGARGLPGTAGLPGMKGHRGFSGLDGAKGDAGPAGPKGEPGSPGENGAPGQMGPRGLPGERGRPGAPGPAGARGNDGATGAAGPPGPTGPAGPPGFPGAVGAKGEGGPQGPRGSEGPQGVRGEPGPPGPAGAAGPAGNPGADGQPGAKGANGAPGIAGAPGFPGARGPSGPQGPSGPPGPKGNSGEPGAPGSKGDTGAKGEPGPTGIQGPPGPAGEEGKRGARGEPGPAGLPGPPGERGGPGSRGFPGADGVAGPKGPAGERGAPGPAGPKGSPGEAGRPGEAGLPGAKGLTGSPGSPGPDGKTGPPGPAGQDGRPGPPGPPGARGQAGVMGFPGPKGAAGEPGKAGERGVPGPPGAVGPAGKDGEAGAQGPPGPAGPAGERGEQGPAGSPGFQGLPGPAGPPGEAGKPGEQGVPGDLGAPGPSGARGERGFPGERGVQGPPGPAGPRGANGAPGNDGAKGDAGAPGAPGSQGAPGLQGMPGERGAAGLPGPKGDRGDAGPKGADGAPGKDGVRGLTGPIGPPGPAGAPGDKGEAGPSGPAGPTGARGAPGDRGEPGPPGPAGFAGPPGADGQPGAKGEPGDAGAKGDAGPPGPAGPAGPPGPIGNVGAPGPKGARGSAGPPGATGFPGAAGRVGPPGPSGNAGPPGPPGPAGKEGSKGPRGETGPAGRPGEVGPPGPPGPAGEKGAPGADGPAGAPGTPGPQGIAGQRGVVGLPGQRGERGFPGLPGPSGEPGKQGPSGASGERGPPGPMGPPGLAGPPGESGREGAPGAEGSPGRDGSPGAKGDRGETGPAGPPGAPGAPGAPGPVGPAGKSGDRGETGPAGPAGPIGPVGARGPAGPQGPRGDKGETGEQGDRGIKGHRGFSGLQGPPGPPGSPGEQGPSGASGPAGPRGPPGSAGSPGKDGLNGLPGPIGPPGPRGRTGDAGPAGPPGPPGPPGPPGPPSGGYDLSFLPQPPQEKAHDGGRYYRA
T1 sequence (P02465 80-1117 limits assumed): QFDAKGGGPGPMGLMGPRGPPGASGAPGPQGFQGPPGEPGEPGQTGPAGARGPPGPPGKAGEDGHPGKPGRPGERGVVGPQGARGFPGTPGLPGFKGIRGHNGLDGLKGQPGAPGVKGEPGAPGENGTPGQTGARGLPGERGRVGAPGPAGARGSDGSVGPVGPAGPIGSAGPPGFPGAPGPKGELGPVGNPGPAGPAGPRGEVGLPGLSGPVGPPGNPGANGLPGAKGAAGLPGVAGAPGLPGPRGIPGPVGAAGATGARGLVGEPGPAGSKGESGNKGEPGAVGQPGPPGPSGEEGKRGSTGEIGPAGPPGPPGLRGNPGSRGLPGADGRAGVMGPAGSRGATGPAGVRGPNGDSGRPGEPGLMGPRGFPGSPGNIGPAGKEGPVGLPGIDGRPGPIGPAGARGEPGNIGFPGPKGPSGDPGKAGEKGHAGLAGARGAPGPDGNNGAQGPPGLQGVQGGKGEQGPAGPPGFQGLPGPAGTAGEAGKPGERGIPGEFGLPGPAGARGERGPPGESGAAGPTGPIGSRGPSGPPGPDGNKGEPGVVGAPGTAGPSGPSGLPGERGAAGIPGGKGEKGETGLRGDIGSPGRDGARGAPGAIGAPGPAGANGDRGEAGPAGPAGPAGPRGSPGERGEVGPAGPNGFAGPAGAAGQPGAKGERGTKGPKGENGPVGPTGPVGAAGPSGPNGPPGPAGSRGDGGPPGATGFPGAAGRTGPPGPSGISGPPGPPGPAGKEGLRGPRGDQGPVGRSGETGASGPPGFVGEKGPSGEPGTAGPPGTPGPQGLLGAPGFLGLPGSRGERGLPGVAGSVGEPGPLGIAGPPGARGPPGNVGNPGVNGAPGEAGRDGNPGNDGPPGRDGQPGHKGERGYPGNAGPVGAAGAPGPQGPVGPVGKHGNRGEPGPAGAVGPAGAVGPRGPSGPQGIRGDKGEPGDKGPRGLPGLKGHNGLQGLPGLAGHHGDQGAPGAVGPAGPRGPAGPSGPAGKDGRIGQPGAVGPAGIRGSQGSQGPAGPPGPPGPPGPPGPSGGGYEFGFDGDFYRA

As for “DS-SILY: collagen-binding peptidoglycan in which a single SILY peptide was conjugated to dermatan sulfate via PDPH (RRANAALKAGELYKSILYGC; also: single peptide conjugated to dermatan sulfate via PDPH, site not given here)”, in the data set with Human dermal fibroblasts, the “TGF-β1 in cell medium” value is listed as “significantly decreased TGF-β1”. Moreover, the elastin production result with HCA SMCs is “significantly increased elastin production over all samples”. In addition, the “fibril density (ratio of fibril containing area to void space)” value in the data set with collagen gels is recorded as “significantly greater fibril density”. For the same substance, in the data set on Long-Evans rats [1] (21 days post-injury, vs untreated or HA treated wounds), the wound breaking strength entry is recorded as “significant increase in wound breaking strength when compared to untreated or HA treated wounds”. For the same substance, the scar strength entry in the data set with Long-Evans rats [1] (full powered study, 0.125 mg and 0.25 mg with HA, 21-days) was “increased scar strength over no treatment”; in the data set with Long-Evans rats [1] (full powered study, 0.125 mg and 0.25 mg with HA, 28-days), “significantly higher compared to the HA control, but was not different from no treatment”; with Long-Evans rats [1] (pilot study, low (0.125 mg) and high (0.625 mg) dose delivered with HA, 21-days) it was “significantly increases scar strength”. Further, the “inflammatory response (histological scoring)” value is “does not cause an adverse immune response” in the data set on Long-Evans rats [2] and “did not have any adverse inflammatory effect” in the data set on Long-Evans rats [2] (listed as peptidoglycan). Moreover, the “histological score for collagen maturity and organization (scar tissue)” value in the data set on Long-Evans rats [3] is recorded as “significantly lower scores”.
